Measured values published in ChEMBL document CHEMBL4354815, “Fibrinolysis Inhibitors: Potential Drugs for the Treatment and Prevention of Bleeding” (J Med Chem, 2020).

Experiments:
[1] = molecular target: T1, Plasminogen (Homo sapiens, UniProt P00747); assay: Inhibition of microplasmin (unknown origin) expressed in Pichia pastoris preincubated for 10 mins followed by S2251 substrate addition
[2] = test system: Plasma; assay: Anti-fibrinolytic activity in 5% human plasma in presence of fibrinogen by spectrophotometric method; type: functional, cell-free
[3] = molecular target: Coagulation factor XI (Homo sapiens, UniProt P03951); assay: Inhibition of human factor 11a preincubated for 15 mins followed by Boc-Glu (OBzl) -Ala-Arg-AMC and measured after 30 mins by fluorescence method
Coagulation factor XI, sequence (P03951 19-387 limits assumed): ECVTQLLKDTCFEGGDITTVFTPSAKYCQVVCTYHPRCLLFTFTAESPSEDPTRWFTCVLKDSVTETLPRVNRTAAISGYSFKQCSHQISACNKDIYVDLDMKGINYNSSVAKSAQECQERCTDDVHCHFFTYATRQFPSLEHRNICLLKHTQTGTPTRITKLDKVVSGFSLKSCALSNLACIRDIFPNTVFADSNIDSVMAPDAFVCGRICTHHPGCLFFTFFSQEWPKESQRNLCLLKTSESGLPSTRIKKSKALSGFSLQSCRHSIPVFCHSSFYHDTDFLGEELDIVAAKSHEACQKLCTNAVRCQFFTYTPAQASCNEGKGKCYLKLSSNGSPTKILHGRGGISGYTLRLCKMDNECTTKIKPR
Coagulation factor XI, sequence (P03951 388-625 limits assumed): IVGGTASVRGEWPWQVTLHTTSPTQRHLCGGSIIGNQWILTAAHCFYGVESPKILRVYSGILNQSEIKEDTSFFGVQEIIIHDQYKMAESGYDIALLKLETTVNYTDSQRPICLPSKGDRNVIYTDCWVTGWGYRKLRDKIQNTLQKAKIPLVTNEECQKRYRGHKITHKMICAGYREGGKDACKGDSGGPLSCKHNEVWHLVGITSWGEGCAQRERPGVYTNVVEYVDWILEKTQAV

[4] = molecular target: T2, Plasma kallikrein (Homo sapiens, UniProt P03952); assay: Inhibition of human plasma kallikrein preincubated for 15 mins followed by H-Pro-Phe-Arg-AMC substrate addition and measured after 30 mins by fluorescence method
T2 sequence (P03952 20-390 limits assumed): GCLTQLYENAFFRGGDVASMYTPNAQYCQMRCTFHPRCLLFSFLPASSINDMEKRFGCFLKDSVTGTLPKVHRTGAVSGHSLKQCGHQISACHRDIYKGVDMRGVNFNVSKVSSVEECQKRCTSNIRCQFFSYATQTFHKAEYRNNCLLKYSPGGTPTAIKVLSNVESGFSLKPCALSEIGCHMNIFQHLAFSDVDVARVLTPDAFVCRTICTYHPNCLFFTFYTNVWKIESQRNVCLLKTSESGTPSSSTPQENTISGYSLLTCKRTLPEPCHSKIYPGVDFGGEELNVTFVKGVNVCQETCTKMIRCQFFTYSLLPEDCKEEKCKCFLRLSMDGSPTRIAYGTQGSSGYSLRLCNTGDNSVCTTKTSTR
T2 sequence (P03952 391-638 limits assumed): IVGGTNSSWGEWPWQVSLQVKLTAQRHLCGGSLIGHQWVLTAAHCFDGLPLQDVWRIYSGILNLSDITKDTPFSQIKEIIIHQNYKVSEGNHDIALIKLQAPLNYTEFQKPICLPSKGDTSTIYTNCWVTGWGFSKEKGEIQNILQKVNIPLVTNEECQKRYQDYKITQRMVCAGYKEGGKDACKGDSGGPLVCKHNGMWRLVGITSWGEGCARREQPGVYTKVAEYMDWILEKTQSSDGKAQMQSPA

[5] = molecular target: T1, Plasminogen; assay: Inhibition of human plasmin preincubated for 15 mins followed by MeOSuc-Ala-Phe-Lys-AMC substrate addition and measured after 30 mins by fluorescence method
[6] = molecular target: T1, Plasminogen; assay: Inhibition of plasmin (unknown origin) assessed as reduction in amidolytic activity using S-2251 as the substrate after 4 mins
[7] = molecular target: T1, Plasminogen; assay: Inhibition of human plasmin using tosyl-Gly-Pro-Lys-pNA as substrate after 10 mins by UV/Vis photometry
[8] = molecular target: T2, Plasma kallikrein; assay: Inhibition of human plasma kallikrein using S2302 as substrate after 10 mins by UV/Vis photometry
[9] = Initial serum concentration in human at 100 mg/kg, iv; type: ADME, organism-based
[10] = Half life in human; type: ADME
[11] = Plasma concentration in human at 100 mg/kg, po measured within 2 to 3 hrs; type: ADME, organism-based; conditions: in vivo
[12] = Drug level in human serum at 100 mg/kg, iv measured after 3 to 4 hrs; type: ADME, organism-based; conditions: in vivo

T1 sequence (P00747 97-580 limits assumed): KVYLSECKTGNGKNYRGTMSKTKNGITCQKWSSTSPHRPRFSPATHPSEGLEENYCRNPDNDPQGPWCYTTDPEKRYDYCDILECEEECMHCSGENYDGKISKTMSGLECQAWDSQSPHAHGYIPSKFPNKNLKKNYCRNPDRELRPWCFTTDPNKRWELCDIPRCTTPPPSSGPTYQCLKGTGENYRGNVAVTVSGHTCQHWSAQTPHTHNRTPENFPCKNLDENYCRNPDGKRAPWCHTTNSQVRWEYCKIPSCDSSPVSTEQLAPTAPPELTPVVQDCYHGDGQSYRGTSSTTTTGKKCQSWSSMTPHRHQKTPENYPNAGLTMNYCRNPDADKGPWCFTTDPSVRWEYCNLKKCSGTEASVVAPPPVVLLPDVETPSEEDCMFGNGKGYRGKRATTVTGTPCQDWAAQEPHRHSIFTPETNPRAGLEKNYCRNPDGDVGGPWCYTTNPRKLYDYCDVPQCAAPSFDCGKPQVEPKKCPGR
T1 sequence (P00747 581-810 limits assumed): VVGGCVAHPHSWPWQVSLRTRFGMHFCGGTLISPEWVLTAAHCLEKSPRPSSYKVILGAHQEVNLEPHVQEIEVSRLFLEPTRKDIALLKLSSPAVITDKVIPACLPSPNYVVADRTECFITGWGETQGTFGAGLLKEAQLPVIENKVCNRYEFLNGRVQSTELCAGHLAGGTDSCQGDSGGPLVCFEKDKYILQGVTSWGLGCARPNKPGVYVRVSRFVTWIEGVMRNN

Compound `CCCCCCCCNC(=O)[C@H](Cc1ccc(OCc2ccc3ccccc3n2)cc1)NC(=O)[C@H]1CC[C@H](CN)CC1` has an IC50 [1] of 380 nM.

Compound `CCCc1noc(-c2c(C)nn3c(C4CCNCC4)cc(=O)[nH]c23)n1` has an IC50 [2] of 6 nM.

`CNC(=O)c1ccc(NC(=O)[C@H](Cc2ccc(-c3cc4[nH]cc(C(=O)O)c(=O)c4cc3C)cc2)NC(=O)[C@H]2CC[C@H](CN)CC2)cc1Cl` showed an IC50 [3] of 21.5 nM, an IC50 [4] of 8.5 nM and an IC50 [5] of 1 nM.

In the case of `CC[C@@H](C)[C@@H](N)C(=O)N[C@@H](Cc1ccccc1)C(=O)N[C@@H](CCCCN)C(=O)Nc1ccc(C(=O)c2ccccc2)cc1`, the IC50 [6] is reported as 69 µM.

Compound `Cc1cc2nc(C(C)C)[nH]c2cc1-c1ccc(C[C@H](NC(=O)[C@H]2CC[C@H](CN)CC2)C(=O)Nc2ccc(-c3nnc(C(F)(F)C(F)(F)C(=O)O)[nH]3)cc2)cc1` has an IC50 [3] of 0.34 nM, an IC50 [4] of 7.2 nM and an IC50 [5] of 0.87 nM.

In the case of `Cc1cc(Cl)c2c(c1)nn1c(C3CCNCC3)cc(=O)[nH]c21`, the IC50 [2] is reported as 11 nM.

For `N=C(N)c1ccc(CNC(=O)[C@H](CCc2ccncc2)NC(=O)[C@@H](CCCc2ccccc2)NS(=O)(=O)Cc2ccccc2)cc1`, the Ki [7] was 0.48 nM and the Ki [8] was 0.6 nM.

For `NCCCCCC(=O)O` [AMINOCAPROIC ACID], the C0 [9] was 1500 µg/mL, the half-life [10] was 80 min and the Cp [11] was 300 mg/L. It also gave a Drug uptake [12] of 0.035 mg/mL.

Compound `Cc1nc2[nH]c(C3CC3)nc2cc1-c1ccc(C[C@H](NC(=O)[C@H]2CC[C@H](CN)CC2)C(=O)Nc2cc(Cl)c3[nH]c(=O)[nH]c3c2)cc1` has an IC50 [3] of 0.7 nM and an IC50 [5] of 0.4 nM.

With `O=C(c1cnn2c(C3CCNCC3)cc(=O)[nH]c12)C1CC1` the IC50 [2] was 8 nM.

With `CCc1ccc(C(=O)Nc2cccc3nn4c(C5CCNCC5)cc(=O)[nH]c4c23)cc1` the IC50 [2] was 10 nM.

In the case of `CC(C)(C)NC(=O)Nc1cccc2nn3c(C4CCNCC4)cc(=O)[nH]c3c12`, the IC50 [2] is reported as 9.1 nM.

Compound `O=C(NCc1ccco1)Nc1cccc2nn3c(C4CCNCC4)cc(=O)[nH]c3c12` has an IC50 [2] of 85 nM.
